Measurements from publication PMC3711460 (The Journal of neuroscience : the official journal of the …, 2013).

How the values were obtained:
TAAR3 = molecular target: T1, TAAR3 (Mus musculus, UniProt Q5QD16); assay type: cell-based
T1 sequence (Q5QD16 1-343): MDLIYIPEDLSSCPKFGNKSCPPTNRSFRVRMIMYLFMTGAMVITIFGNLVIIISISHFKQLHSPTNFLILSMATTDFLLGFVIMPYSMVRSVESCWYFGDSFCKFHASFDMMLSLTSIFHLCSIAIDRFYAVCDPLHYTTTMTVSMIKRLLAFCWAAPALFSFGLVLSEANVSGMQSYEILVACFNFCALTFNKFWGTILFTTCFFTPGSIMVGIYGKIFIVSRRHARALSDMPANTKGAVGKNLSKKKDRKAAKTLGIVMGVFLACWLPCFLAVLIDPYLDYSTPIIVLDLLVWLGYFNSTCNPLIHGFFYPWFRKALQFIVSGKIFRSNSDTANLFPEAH

human TAAR5 = molecular target: T2, human TAAR5 (Homo sapiens, UniProt O14804); assay type: cell-based
T2 sequence (O14804 1-337): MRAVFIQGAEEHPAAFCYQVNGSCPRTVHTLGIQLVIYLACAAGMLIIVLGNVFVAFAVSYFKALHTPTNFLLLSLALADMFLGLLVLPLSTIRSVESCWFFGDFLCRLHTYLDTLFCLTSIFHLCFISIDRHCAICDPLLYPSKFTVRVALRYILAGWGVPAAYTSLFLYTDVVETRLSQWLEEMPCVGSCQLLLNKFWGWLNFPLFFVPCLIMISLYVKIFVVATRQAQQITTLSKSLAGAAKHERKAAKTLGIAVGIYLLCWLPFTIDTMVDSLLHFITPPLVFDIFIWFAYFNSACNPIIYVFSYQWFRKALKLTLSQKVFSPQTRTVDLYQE

EC50 (human TAAR5) [µM]	SMILES	EC50 (TAAR3) [µM]
	CC(C)CCN [IPA, isopentylamine]	0.015
1.2 ± 0.6	CCN(C)C [DMEA, N,N-dimethylethylamine]	
	NC1CCCCC1 [CHX, cyclohexylamine]	0.27
